Five molecules from patent US4758579A, “Fluoroalkoxy substituted benzimidazoles useful as gastric acid secretion inhibitors” (BYK Gulden Lomberg Chemische Fabrik GmbH, priority 1984, dated 1988) can be followed below.

In test [1] the test system is formation of gastric lesions. As to the kind of experiment: Antiulcerogenic action in Shay rats: protective action on the stomach (lesion index after pylorus ligature and oral acetylsalicylic acid). As to conditions: rat, p.o., pylorus ligature (4 hours; Shay rat) + 100 mg/kg acetylsalicylic acid, dose reducing lesion index by 50% vs control, read-out: Protective action on the stomach (rat) inhibition of the lesion index ED50. It counts as in vivo. The procedure:
(§1) The compounds according to the invention investigated appear in the following table:
(§2) The influence of the compounds investigated on the formation of gastric lesions triggered by pylorus ligature (4 hours; Shay rat) and oral administration of 100 mg/kg of acetylsalicylic acid on the inhibition of gastric secretion (HCl) in rats during 4 hours is shown in the following table:
(§3) The antiulcerogenic action was tested in Shay rats:
(§4) Ulcers were provoked in rats which had fasted for 24 hours (female, 180-200 g, 4 animals per cage on a high grid) by pylorus ligature (under diethyl ether anesthesia) and oral administration of 100 mg/10 ml/kg of acetylsalicylic acid. The substances to be tested are administered orally (10 ml/kg) one hour before the pylorus ligature. The wound is closed by means of Michel clamps. 4 hours thereafter, the animals are sacrificed under ether anesthesia by atlas dislocation and the stomach is resected. The stomach is opened longitudinally and fixed to a cork plate, after first determining the amount of secreted gastric juice (volume) and later its HCl content (titration with sodium hydroxide solution). The number and size (=diameter) of ulcers present are determined with a stereomicroscope with 10-fold magnification. The product of the degree of severity (according to the following points scale) and number of ulcers serves as the individual lesion index.
ulcer diameter 0.1-1.4 mm
(§5) The reduction in the average lesion index of each treated group compared with that of the control group (=100%) serves as a measure of the antiulcerogenic effect.

Test [2] concerns HCl secretion in the stomach. Kind of test: Inhibition of gastric secretion (HCl) in the stomach of the Shay rat over 4 hours. The test is classed as in vivo. To be noted: total of 4 hours; for ED25 / ED50: po; for ED25: dose reducing HCl secretion by 25% vs control; for ED50: dose reducing HCl secretion by 50% vs control; for % inhibition of HCl secretion: after administration of the antiulcerous ED50. The method, then:
as §1, §2
ED25+ and ED50+ = dose which reduces the lesion index and the HCL
secretion (over 4 hours) in the rat stomach by 25% and 50% in the treated
group in comparison with the control group.
(++) = after administration of the antiulcerous ED50
as §3, §4, §5

For orientation: ED50 means the dose at which the effect has come halfway, by size or by number of responders. On to `COc1cnc(C[S+]([O-])c2nc3cc(OC(F)(F)F)ccc3[nH]2)cc1OC` (centres unmarked) [Serial No. 1, 2-[(4,5-Dimethoxy-2-pyridyl)methylsulfinyl]-5-trifluoromethoxy-1H-benzimidazole], for which the median effective dose (ED50) in test [1] is 0.6 mg/kg. Further, in test [2], the ED25 turned out to be 1 mg/kg, the ED50 is roughly 3 mg/kg and the “% inhibition of HCl secretion” value was determined as 15%.

For `COc1cnc(C[S+]([O-])c2nc3cc(OC(F)(F)F)ccc3[nH]2)c(C)c1OC` (centres unmarked) [Serial No. 2, 2-[(4,5-Dimethoxy-3-methyl-2-pyridyl)methylsulfinyl]-5-trifluoromethoxy-1H-benzimidazole], the ED50 in test [1] amounted to 0.8 mg/kg. Also, in test [2], the ED25 stood at 0.7 mg/kg, the ED50 stood at 1.7 mg/kg and the “% inhibition of HCl secretion” value is on record as 25%.

As for `COc1cnc(C[S+]([O-])c2nc3cc(OC(F)(F)C(F)F)ccc3[nH]2)cc1OC` (centres unmarked) [Serial No. 3, 2-[(4,5-dimethoxy-2-pyridyl)methylsulfinyl]-5-(1,1,2,2-tetrafluoroethoxy)-1H-benzimidazole], in test [1], the median effective dose (ED50) is 0.6 mg/kg. Besides, in test [2], the ED25 was roughly 1 mg/kg, the ED50 is 3.4 mg/kg and the “% inhibition of HCl secretion” value came out at 18%.

With `COc1cnc(CSc2nc3cc4c(cc3[nH]2)OC(F)(F)O4)cc1OC` [Serial No. 4, 2,2-difluoro-6-[(4,5-dimethoxy-2-pyridyl)methylthio]-5H-[1,3]-dioxolo[4,5-f]benzimidazole], the ED50 in test [1] was 3.5 mg/kg. In test [2], the ED25 stood at 3 mg/kg, the 50% effect level (ED50) was put at a dose of 6.5 mg/kg and the “% inhibition of HCl secretion” value was 28%.

Regarding `COc1cnc(C[S+]([O-])c2nc3cc4c(cc3[nH]2)OC(F)(F)O4)cc1OC` (centres unmarked) [Serial No. 5, 2,2-Difluoro-6-[(4,5-dimethoxy-2-pyridyl)methylsulfinyl]-5H-[1,3]-dioxolo[4,5-f]benzimidazole], the 50% effective dose (ED50) in test [1] is roughly 1 mg/kg. In test [2], the ED25 worked out at 1 mg/kg, the 50% effect level (ED50) was put at a dose of 3 mg/kg and the “% inhibition of HCl secretion” value amounted to 25%.
